In series [1] the test system is Rspo3 fusion tumors. The series is described as follows: Subcutaneous Rspo3 fusion organoid tumors in nude mice. It counts as in vivo, mouse. Conditions: single dose of asparaginase. As for the experimental part:
(§1) For implantation of APC mutant human CRC PDX, patient tumor material was collected in PBS and kept on wet ice for engraftment within 24 h after resection. Upon arrival, necrotic and supporting tissues were carefully removed using a surgical blade. Approximately 1 mm×1 mm tissue fragments were implanted subcutaneously into the flank region of male nude mice, as described (Bullman et al., 2017). For injection of intestinal organoids (Rspo3; p53; Kras, or Apc; p53; Kras), per mouse one full […] well of organoids was injected subcutaneously.
(§2) As soon as tumors reached a volume of approximately 150 mm3, treatment of mice was begun. For the APC mutant human CRC PDX, a single dose of asparaginase (1,000 U/kg) or PBS was injected by tail vein injection on day 1 of treatment, and BRD0705 (15 mg/kg) or vehicle was given every 12 hours for 21 days by oral gavage. Vehicle was formulated as previously described (Wagner et al., 2018).
(§3) After start of treatment, body weight and tumor size were evaluated every other day. Tumor size was assessed by caliper measurements and the approximate volume of the mass was calculated using the formula (l×w×w)×(π/6), where 1 is the major tumor axis and w is the minor tumor axis.

The test system of series [2] is CCRF-CEM cells. The series is described as follows: Assessment of cell size by flow cytometry (FSC-H), CCRF-CEM. It counts as cell-based, human. Conditions: asparaginase 10 U/L, 48 hours. As for the experimental part:
Assessment of cell size. Cells (400,000 per well) were plated in 1 ml of complete growth medium, containing a final concentration of 10 U/L asparaginase in a 24-well format. After 48 hours of treatment, forward scattering (FSC-H) was assessed by flow cytometry.

The subject of series [3] is HCT-15 cells. The series is described as follows: Assessment of cell size by flow cytometry (FSC-H), HCT-15. It counts as cell-based, human. Conditions: asparaginase 100 U/L (FIG. 18A). Here is the method:
[…] After 48 hours of treatment, forward scatter height (FSC-H) was assessed by flow cytometry on a Beckton-Dickinson LSR-II instrument.

Series [4] has as its system SW-480 cells. Kind of series: Chemotherapy response of colon cancer cell lines (trypan blue counts), SW-480. It is filed as cell-based, human. To be noted: 10 days. As for the experimental part:
(§4) Cells (100,000 per well) were seeded in […] of complete growth medium in 12-well plates and incubated with chemotherapeutic agents or vehicle. Cells were split every 48 hours and cell viability was assessed by counting viable cells based on trypan blue vital dye staining (Invitrogen), according to the manufacturer's instructions. Chemotherapeutic drugs included: asparaginase (pegaspargase, Shire, Lexington, MA), CHIR99021 (Selleckchem), recombinant human Wnt3A protein (R&D systems, Minneapolis, MN) and recombinant human R-Spondin 3 protein (R&D systems, Minneapolis, MN). BRD0705 and BRD3731 were synthesized as described (Wagner et al., 2018). Caspase 3/7 activity was assessed using the Caspase Glo 3/7 Assay (Promega, Madison, WI) according to the manufacturer's instructions.

Series [5] has as its system Apc-deficient organoids. The series is described as follows: Chemotherapy response in mouse intestinal organoids, Apc-deficient. Conditions: asparaginase 100 U/L, BRD0705 1 μM or both, 10 days. It is filed as cell-based. As for the experimental part:
(§5) For assessment of chemotherapy response in mouse intestinal organoids, Apc-deficient and Rspo3 fusion organoids were cultured in basal organoid medium (medium not containing murine Wnt3A, murine Noggin and human R-spondin1 protein). A full 0.95 cm2 well of organoids was split into new wells, aiming to obtain approximately 25 organoids per well. Organoids were split according to previously published protocols (O'Rourke et al., 2016). Matrigel and basal organoid culture medium were supplemented with vehicle or chemotherapeutic agents, and split every 48 hours. After 10 days in culture, total organoid numbers per wells were counted by light microscopy. Microscopy was performed using an 100× objective on an Axio Imager A1 microscope (Zeiss, Oberkochen, Germany), with images captured using a CV-A10 digital camera (Jai, Yokohama, Japan) and Cytovision software (Leica Biosystems, Wetzlar, Germany).
(§6) Organoids touching the edge of a well were excluded from counting. Images were taken from a representative of three independent experiments and analyzed with ImageJ Software (Schneider et al., 2012).

In series [6] the test system is CRC. To be noted: Clarkson 1970; Ohnuma 1970; Wilson 1975; cited from earlier work.
Series [7] concerns Apc-deficient tumors. Kind of series: Subcutaneous Apc-deficient organoid tumors in nude mice. Conditions: single dose of asparaginase. It is filed as in vivo, mouse. As for the experimental part: as §1, §2, §3
Series [8] concerns CCRF-CEM cells. The series is described as follows: Viable cell counts (trypan blue) of CCRF-CEM cells treated with asparaginase and other agents. It is filed as cell-based, human. Here is the method: Cells (25,000 per well) were seeded in 100 μl of complete growth medium in 96-well plates and incubated with chemotherapeutic agents or vehicle. T-ALL cells were split every 48 hours in a 1:5 ratio. Briefly, 20 μl of cells were mixed with 80 μl fresh culture medium, supplemented with vehicle or chemotherapeutic drugs at the indicated doses. AML cells were split every 72 hours as described above. Cell viability was assessed by counting viable cells based on trypan blue vital dye staining (Invitrogen), according to the manufacturer's instructions. Chemotherapeutic drugs included: PEG-asparaginase (“oncaspar”, Shire, Lexington, MA), dexamethasone (Sigma-Aldrich), vincristine (Selleckchem, Houston, TX), doxorubicin (Sigma-Aldrich), 6-mercaptopurine (Abcam, Cambridge, UK), CHIR99021 (Selleckchem), bortezomib (Selleckchem), rapamycin (Selleckchem), RAD001 (Selleckchem), AZD2014 (Selleckchem), and Wnt3A (R&D systems, Minneapolis, MN). BRD0705 and […] were synthesized as described^15. Caspase 3/7 activity was assessed using the Caspase Glo 3/7 Assay (Promega, Madison, WI) according to the manufacturer's instructions.

The subject of series [9] is asparaginase-resistant T-ALL patient-derived xenograft. The series is described as follows: T-ALL patient-derived xenograft in NRG mice, survival. It counts as in vivo, mouse. Here is the method: Mice were exposed to a sub-lethal dose of radiation (4.5 Gy) and subsequently injected with human leukemia cells. All injections were performed by tail vein injection. Blood collections were performed to monitor leukemia onset in mice injected with leukemic cells, which was assessed by staining for human CD45 expression using anti-human CD45-PE-Cy7 (1:400, BD #560915) antibody staining. As soon as leukemia engraftment was confirmed based on ≥5% human leukemia cells in the peripheral blood, treatment of mice was begun. Asparaginase (1,000 U/kg) or PBS were injected by tail vein injection as a single dose on day 1 of drug treatment, and BRD0705 (15 mg/kg) or vehicle were given every 12 hours for 12 days by oral gavage. Vehicle was formulated as previously described.^15 Mice were anesthetized with isoflurane (Patterson Veterinary, Greeley, CO) prior to gavage. After start of treatment, body weight was monitored every third day. To assess bilirubin levels, mandibular blood vein collection was performed, and bilirubin levels were measured in the Boston Children's Hospital clinical laboratory. The primary endpoint of this experiment was survival. Mice were euthanized as soon as they developed weight loss greater than 15% or signs/symptoms of progressing disease. Post-mortem analysis of leukemic burden was performed by extracting bone marrow cells, which were filtered through a […] mesh filter and red blood cells were lysed using the BD Biosciences Red Blood Cell Lysis reagent (BD #555899). Isolated bone marrow cells were stained for assessment of leukemic burden using following antibodies from BD Biosciences: Anti-human CD4-APC-Cy7 (1:100, BD #561839) and anti-human CD8-PerCP-Cy5.5 (1:100, BD #560662).

The subject of series [10] is Rspo3 fusion organoids. The series is described as follows: Chemotherapy response in mouse intestinal organoids, Rspo3 fusion. It counts as cell-based. Conditions: asparaginase 100 U/L, 10 days. Here is the method: as §5, §6
The subject of series [11] is APC-mutant CRC patient-derived xenograft. Kind of series: APC-mutant human CRC patient-derived xenograft in nude mice. It is filed as in vivo, mouse. Conditions: asparaginase 1000 U/kg×1 dose; BRD0705 every 12 hours×21 days. As for the experimental part: as §1
As soon as tumors reached a volume of approximately 150 mm3, treatment of mice was begun. […] Vehicle was formulated as previously described (Wagner et al., 2018).
as §3

The test system of series [12] is HCT-15 cells. The series is described as follows: Chemotherapy response of colon cancer cell lines (trypan blue counts), HCT-15. It is filed as cell-based, human. To be noted: 10 days. As for the experimental part: as §4
Series [13] is described as follows: Body weight of nude mice injected with organoids. It is filed as in vivo. Conditions: single dose of asparaginase, FIG. 19A. As for the experimental part:
as §3

Turning to asparaginase, in series [1], the therapeutic activity result was “significant therapeutic activity”. In addition, the “disease progression (tumor volume)” value in [1] (FIG. 16B) was “markedly delayed disease progression”. The tumor regression result in series [1] (FIG. 16C) is recorded as “induced tumor regression in most treated mice”. The progression-free survival result in [1] (FIG. 16D) is recorded as “prolonged progression-free survival”. For the same substance, the “cell size (FSC-H)” value is “measurable decrease in cell size” in series [2] and “significantly decreased cell size” in [3]. Moreover, the “response to asparaginase monotherapy” value in [4] and in [12] was “refractory” throughout. Also, the figures for the “toxicity to organoids (viable organoid count)” value in series [5] and in series [10] were “little activity” and “highly toxic”, respectively. In addition, in [6], the “activity in unselected patients with CRC” value is recorded as “little activity”. Further, the effect on tumors entry in series [7] is reported as “little effect”. In series [8] (10 U/L dose), the toxicity of asparaginase entry is recorded as “lacked detectable toxicity”. The “asparaginase sensitivity of the cell line (viability)” value in [8] (FIG. 5: 100 U/L asparaginase, 48 hours) is recorded as “asparaginase-resistant”. The “difference in survival between vehicle and monotherapy groups (log-rank)” value in series [9] (FIG. 4D, Kaplan-Meier) is “not significant”. In addition, the “efficacy against xenograft (survival)” value in series [9] (asparaginase 1,000 U/kg i.v. single dose, BRD0705 15 mg/kg oral gavage every 12 hours for 12 days) is “highly resistant”. Moreover, the “activity on tumor growth” value in series [11] is listed as “no activity”. The weight loss entry in series [13] is given as “without inducing appreciable weight loss”.

The values are drawn from patent publication US20260151467A1, “METHOD FOR TREATING CANCER” (THE CHILDREN'S MEDICAL CENTER CORPORATION, priority 2018, published 2026).
